Entries after “also recorded” stand apart in the source; their conditions may differ.
Key:
Assay type in all cases: binding
[1] = biological target: T1, human galectin-1 (Gal-1) (Homo sapiens, UniProt P09382); experiment: ITC assay, ligand titrating native Gal-1; settings: Gal-1, 298 K
T1 construct: made in house; host or cells: Escherichia coli BL21 (DE3)
Procedure: (§1) The delayed time between injections is 180 s. For every ligands, at least three titrations were done. The dissociation constants (Kd) were calculated using the Origin Program and the experimental data were fitted to a one-set-of-sites model.

[2] = biological target: T2, human galectin-3 carbohydrate recognition domain (Gal-3 CRD) (Homo sapiens, UniProt P17931); experiment: ITC assay, ligand titrating native Gal-3 CRD; settings: 298 K
T2 construct: The molecule used in this study is a truncated CRD domain of Gal-3; made in house; host or cells: Escherichia coli BL21 (DE3)
Procedure: as §1

[3] = biological target: T3, Gal-1-g3-L4 (Gal-1-51ENNR54) mutant (Homo sapiens, UniProt P09382, A56R/D55N/DEL52-52/G54N/H53E); experiment: ITC assay, ligand titrating mutant Gal-1-g3-L4; settings: mutant Gal-1-g3-L4, 298 K; for N, stochiometry (ITC): stochiometry fixed with a value of 1
T3 construct: made in house; host or cells: Escherichia coli BL21 (DE3)
Procedure: (§2) The mutants, Gal-1-g3-L4 and Gal-3-g1-L4, were designed by exchanging two loops, g1-L4 and g3-L4. These mutants were constructed using Quick Change Site Directed Mutagenesis method, and then the proteins were expressed and purified as above procedures.
as §1

[4] = biological target: T4, Gal-3-g1-L4 (Gal-3 CRD-165AHGDA169) mutant (Homo sapiens, UniProt P17931, E165H/INS164A/N166G/N167D/R168A); experiment: ITC assay, ligand titrating mutant Gal-3-g1-L4; settings: for N, stochiometry (ITC): stochiometry fixed with a value of 1
T4 construct: The molecule used in this study is a truncated CRD domain of Gal-3; made in house; host or cells: Escherichia coli BL21 (DE3)
Procedure: as §2, §1

[5] = biological target: T1, human galectin-1 (Gal-1); experiment: SPR assay, Gal-1 over immobilized biotin labeled GM1; settings: Gal-1, immobilized biotin labeled GM1 pentasaccharide, 298 K
Procedure: (§3) Biotin labeled GM1 pentasaccharide (from CFG) was dissolved into PBS buffer and connected covalently onto a streptavidin (SA) chip as the immobilized phase. […] Galectins in the sample buffer (20 mM PBS, pH7.5, 0.005% Tween 20) were as the flowing phase. Analytes with volume of 30 µl at various concentrations ordered from low to high were programmed to inject with a 30 µl/min flow rate under different sensorgrams. In order to correct for instrumental and concentration effects, a blank flow channel was used as reference. Specific binding analyses were identified by subtraction of the control channel. The kinetic analyses of molecular interactions were calculated according to the steady state affinity model by BIAcore T100 Evaluation software.

[6] = biological target: T5, human galectin-3 CRD (Gal-3 CRD) (Homo sapiens, UniProt P17931); experiment: SPR assay, Gal-3 CRD over immobilized biotin labeled GM1; settings: immobilized biotin labeled GM1 pentasaccharide, steady state affinity model, 298 K
T5 construct: The molecule used in this study is a truncated CRD domain of Gal-3; made in house; host or cells: Escherichia coli BL21 (DE3)
Procedure: as §3

[7] = biological target: T6, Gal-1-g3-L4 mutant (Homo sapiens, UniProt P09382, A56R/D55N/DEL52-52/G54N/H53E); experiment: SPR assay, Gal-1-g3-L4 over immobilized biotin labeled GM1; settings: mutant Gal-1-g3-L4, immobilized biotin labeled GM1 pentasaccharide, 298 K
T6 construct: made in house; host or cells: Escherichia coli BL21 (DE3)
Procedure: as §2, §3

[8] = biological target: T7, Gal-3-g1-L4 mutant (Homo sapiens, UniProt P17931, E165H/INS164A/N166G/N167D/R168A); experiment: SPR assay, Gal-3-g1-L4 over immobilized biotin labeled GM1; settings: mutant Gal-3-g1-L4, immobilized biotin labeled GM1 pentasaccharide, steady state affinity model, 298 K
T7 construct: The molecule used in this study is a truncated CRD domain of Gal-3; made in house; host or cells: Escherichia coli BL21 (DE3)
Procedure: as §2, §3

T1 sequence (P09382 whole entry): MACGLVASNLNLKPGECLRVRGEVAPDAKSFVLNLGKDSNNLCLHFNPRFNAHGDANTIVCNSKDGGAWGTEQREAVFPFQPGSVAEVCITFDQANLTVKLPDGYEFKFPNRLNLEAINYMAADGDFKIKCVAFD
T4 sequence (P17931 with tags, fused parts or gaps INS164A/E165H/N166G/N167D/R168A): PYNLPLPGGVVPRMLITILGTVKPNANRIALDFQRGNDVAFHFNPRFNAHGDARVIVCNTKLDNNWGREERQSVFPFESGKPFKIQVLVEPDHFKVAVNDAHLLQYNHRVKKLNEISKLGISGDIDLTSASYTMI
T2 sequence (P17931 118-248 limits assumed): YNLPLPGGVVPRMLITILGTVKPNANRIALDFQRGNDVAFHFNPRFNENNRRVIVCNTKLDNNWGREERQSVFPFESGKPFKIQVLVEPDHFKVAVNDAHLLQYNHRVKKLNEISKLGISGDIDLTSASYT
T3 sequence (P09382 with tags, fused parts or gaps DEL52-52/H53E/G54N/D55N/A56R): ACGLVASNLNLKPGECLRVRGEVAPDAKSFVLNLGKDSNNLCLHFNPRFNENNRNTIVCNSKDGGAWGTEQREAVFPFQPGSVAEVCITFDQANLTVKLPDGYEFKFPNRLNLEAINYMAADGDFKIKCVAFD
T7 sequence (P17931 with tags, fused parts or gaps INS164A/E165H/N166G/N167D/R168A): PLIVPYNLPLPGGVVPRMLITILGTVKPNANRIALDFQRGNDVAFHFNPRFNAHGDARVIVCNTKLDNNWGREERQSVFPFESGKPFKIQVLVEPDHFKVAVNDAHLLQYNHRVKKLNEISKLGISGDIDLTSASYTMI
T5 sequence (P17931 118-248 limits assumed): as the sequence (P17931 118-248 limits assumed) above
T6 sequence (P09382 with tags, fused parts or gaps DEL52-52/H53E/G54N/D55N/A56R): as the sequence (P09382 with tags, fused parts or gaps DEL52-52/H53E/G54N/D55N/A56R) above

Row | -ΔH (ITC) ([2]; Gal-3 CRD) | N, stochiometry (ITC) ([2]; Gal-3 CRD) | ΔS (ITC) ([2]; Gal-3 CRD) | -ΔH (ITC) [3] | Kd [3] | Kd (ITC) [3] | ΔS (ITC) [3] | N, stochiometry (ITC) [3] | -ΔH (ITC) ([4]; mutant Gal-3-g1-L4, 298 K) | Kd ([4]; mutant Gal-3-g1-L4, 298 K) | ΔS (ITC) ([4]; mutant Gal-3-g1-L4, 298 K) | N, stochiometry (ITC) ([4]; mutant Gal-3-g1-L4, 298 K) | Molecule | Kd (ITC) [1] | other results
1 | 4.0 kcal/mol | 1.06 | 6.0 cal/mol/deg | 10.3 kcal/mol | 568 µM | gains the TF-binding ability | −19.8 cal/mol/deg | 1.00 | 3.2 kcal/mol | 415 µM | 4.7 cal/mol/deg | 1.00 | CC(=O)N[C@H]1[C@H](O[C@@H]2[C@H](O[C@]3(C(=O)O)C[C@H](O)[C@@H](NC(C)=O)[C@H]([C@H](O)[C@H](O)CO)O3)[C@@H](O)[C@H](O[C@H]3[C@H](O)[C@@H](O)C(O)O[C@@H]3CO)O[C@@H]2CO)O[C@H](CO)[C@H](O)[C@@H]1O[C@@H]1O[C@H](CO)[C@H](O)[C@H](O)[C@H]1O (some centres unmarked) [GM1, Galβ1-3GalNAcβ1-4[NeuAcα2-3]Galβ1-4Glc] | can not recognize and interact; also recorded: does not bind; also recorded: No affinity | Kd (SPR) [5]: No affinity; Kd [6]: 62 µM; Kd (SPR) [7]: Low affinity; Kd [8]: 397 µM
2 | 1.9 kcal/mol | 1.04 | 13.5 cal/mol/deg | – | – | – | – | – | – | – | – | – | Galβ1-3GalNAcα1-O-Ser/Thr [TF antigen] | – | -ΔH (ITC) [1]: 26.3 kcal/mol; Kd [1]: 4000 µM; ΔS (ITC) [1]: −77.2 cal/mol/deg; N, stochiometry (ITC) ([1]; stochiometry fixed with a value of 1): 1.00; Kd ([2]; Gal-3 CRD): 47 µM
3 | 4.6 kcal/mol | 1.21 | 3.8 cal/mol/deg | 1.5 kcal/mol | 719 µM | can bind and interact | 9.4 cal/mol/deg | 1.00 | 3.9 kcal/mol | 543 µM | 1.9 cal/mol/deg | 1.00 | CC(=O)N[C@H]1[C@@H](Oc2ccc([N+](=O)[O-])cc2)O[C@H](CO)[C@H](O)[C@@H]1O[C@@H]1O[C@H](CO)[C@H](O)[C@H](O)[C@H]1O [TFN, TF p-nitrophenyl] | can not recognize; also recorded: does not bind; also recorded: No affinity | affinity relative to native Gal-3 (ITC) ([2]; native Gal-3 CRD as reference): 100%; Kd (ITC) ([4]; mutant Gal-3-g1-L4, 298 K): very lower affinity; affinity relative to native Gal-3 (ITC) ([4]; mutant Gal-3-g1-L4 compared to native Gal-3, 298 K): 12%

Reference: PMC3176802, “Structural Basis for Distinct Binding Properties of the Human Galectins to Thomsen-Friedenreich Antigen” (PLoS ONE, 2011)
